In PubChem BioAssay (NCI):
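96-well plates; 48 h exposure; 5 concentrations. Endpoints by linear interpolation between flanking doses. Not reached: highest tested concentration assigned. GI50: concentration for 50% inhibition of growth. Definition used: TGI = concentration required for complete inhibition of growth.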

How the values were obtained:
Experiment in all cases: NCI anticancer screen, dose series, 48 h; in the data active means GI50 below about 0.43 µM; inactive means the rest
M14 melanoma = system: M14 melanoma
TK-10 renal = system: TK-10 renal
HCC-2998 colon = system: HCC-2998 colon
ACHN renal = system: ACHN renal
CCRF-CEM leukemia = system: CCRF-CEM leukemia
SK-MEL-5 melanoma = system: SK-MEL-5 melanoma
SF-539 CNS = system: SF-539 CNS
SK-OV-3 ovarian = system: SK-OV-3 ovarian
NCI-H226 lung = system: NCI-H226 lung
BT-549 breast = system: BT-549 breast

CCCCCCCC(=O)[O-].N.N.N.N.N.[Co+3].[O-][Cl+3]([O-])([O-])[O-]
> 100 µM: TGI (M14 melanoma) | TGI (TK-10 renal) | TGI (HCC-2998 colon) | TGI (ACHN renal) | TGI (CCRF-CEM leukemia) | TGI (SK-MEL-5 melanoma) | TGI (SF-539 CNS) | TGI (SK-OV-3 ovarian)
inactive: GI50 (M14 melanoma) > 100 µM | GI50 (TK-10 renal) > 100 µM | GI50 (HCC-2998 colon) > 100 µM | GI50 (ACHN renal) > 100 µM | GI50 (CCRF-CEM leukemia) > 100 µM | GI50 (SK-MEL-5 melanoma) > 100 µM | GI50 (SF-539 CNS) > 100 µM | GI50 (SK-OV-3 ovarian) > 100 µM

C/C(COc1ccccc1)=N\NC(N)=S
> 100 µM: TGI (M14 melanoma) | TGI (TK-10 renal) | TGI (HCC-2998 colon) | TGI (ACHN renal) | TGI (CCRF-CEM leukemia) | TGI (NCI-H226 lung) | TGI (SK-MEL-5 melanoma) | TGI (SF-539 CNS) | TGI (SK-OV-3 ovarian)

NC(=O)C1CCCN1Cc1ccc2c(c1)OCO2 (stereo not given)
> 100 µM: TGI (M14 melanoma) | TGI (TK-10 renal) | TGI (ACHN renal) | TGI (CCRF-CEM leukemia) | TGI (NCI-H226 lung) | TGI (SK-MEL-5 melanoma) | TGI (SF-539 CNS) | TGI (SK-OV-3 ovarian) | TGI (BT-549 breast)

CCN(CC(O)COc1ccc2c(c1)[n+]([O-])nc(N)[n+]2[O-])C(C)=O (stereo not given)
> 100 µM: TGI (M14 melanoma) | TGI (TK-10 renal) | TGI (ACHN renal) | TGI (CCRF-CEM leukemia) | TGI (NCI-H226 lung) | TGI (SK-MEL-5 melanoma) | TGI (SF-539 CNS) | TGI (SK-OV-3 ovarian) | TGI (BT-549 breast)

O=C1/C(=C/c2ccc(C(=O)O)cc2)CNC/C1=C\c1ccc(C(=O)O)cc1
> 100 µM: TGI (M14 melanoma) | TGI (TK-10 renal) | TGI (HCC-2998 colon) | TGI (ACHN renal) | TGI (CCRF-CEM leukemia) | TGI (NCI-H226 lung) | TGI (SK-MEL-5 melanoma) | TGI (SF-539 CNS) | TGI (SK-OV-3 ovarian)

COc1cc(/C=C/[N+](=O)[O-])cc(OC)c1
inactive: GI50 (M14 melanoma) 2 µM | GI50 (HCC-2998 colon) 1.98 µM | GI50 (ACHN renal) 1.76 µM | GI50 (CCRF-CEM leukemia) 2.02 µM | GI50 (NCI-H226 lung) 17.3 µM | GI50 (SK-MEL-5 melanoma) 1.97 µM | GI50 (SF-539 CNS) 2.49 µM | GI50 (SK-OV-3 ovarian) 11.1 µM | GI50 (BT-549 breast) 1.85 µM
4.48 µM: TGI (M14 melanoma)
46.1 µM: TGI (NCI-H226 lung)
4.03 µM: TGI (SK-MEL-5 melanoma)
3.65 µM: TGI (BT-549 breast)
5.56 µM: TGI (SF-539 CNS)
3.72 µM: TGI (ACHN renal)
6.32 µM: TGI (CCRF-CEM leukemia)
3.59 µM: TGI (HCC-2998 colon)
23.1 µM: TGI (SK-OV-3 ovarian)

O=Cc1cc2sc(C=O)cc2s1
59.2 µM: TGI (NCI-H226 lung)
> 100 µM: TGI (M14 melanoma) | TGI (TK-10 renal) | TGI (HCC-2998 colon) | TGI (CCRF-CEM leukemia) | TGI (SK-MEL-5 melanoma) | TGI (SF-539 CNS) | TGI (SK-OV-3 ovarian)

CCCCCCCCCCCCCC(=O)OCC1OC(=O)C(O)C1O (stereo not given)
> 100 µM: TGI (M14 melanoma) | TGI (TK-10 renal) | TGI (HCC-2998 colon) | TGI (ACHN renal) | TGI (CCRF-CEM leukemia) | TGI (NCI-H226 lung) | TGI (SK-MEL-5 melanoma) | TGI (SF-539 CNS) | TGI (SK-OV-3 ovarian)

Fc1ccc(Nc2ccnc(N3CCN(c4ccnc5cc(Cl)ccc45)CC3)n2)cc1
4.25 µM: TGI (M14 melanoma)
8.57 µM: TGI (BT-549 breast)
10.3 µM: TGI (SF-539 CNS)
> 100 µM: TGI (ACHN renal) | TGI (SK-OV-3 ovarian)
10.5 µM: TGI (CCRF-CEM leukemia)
inactive: GI50 (M14 melanoma) 1.89 µM | GI50 (HCC-2998 colon) 3.4 µM | GI50 (ACHN renal) 2.5 µM | GI50 (CCRF-CEM leukemia) 2.74 µM | GI50 (NCI-H226 lung) 2.52 µM | GI50 (SK-MEL-5 melanoma) 1.53 µM | GI50 (SF-539 CNS) 2.95 µM | GI50 (SK-OV-3 ovarian) 5.02 µM | GI50 (BT-549 breast) 2.95 µM
2.96 µM: TGI (SK-MEL-5 melanoma)
17.5 µM: TGI (NCI-H226 lung)
13.7 µM: TGI (HCC-2998 colon)
